Laboratory results reported in patent publication US20240083888A1, “SMALL MOLECULE INHIBITOR FOR CATHEPSIN C AND MEDICINAL USE THEREOF” (REISTONE BIOPHARMA COMPANY LIMITED, priority 2020, published 2024).
Structures can show the parent of a compound that is named as a salt. Where two headings read alike, the source gives them in different places.

Assays:
[1] = biological target: rhCatC (Homo sapiens (Human), UniProt P53634); test: In vitro enzyme activity experiment of rhCatC (AMC fluorescence assay); format: biochemical; conditions: rhCatC enzyme, substrate H-Gly-Arg-AMC; read-out: Biological activity IC50
Method: The in vitro inhibitory effect of compounds and positive control on rhCatC enzyme activity was evaluated by AMC fluorescence assay. rhCatC can catalyze the reaction of substrate peptide H-Gly-Arg-AMC, and release AMC to generate fluorescence. […] The compound was diluted with DMSO to a 384-well echo plate at a concentration of 100× of the highest concentration at the beginning of the experiment. 0.2 μL of the diluted compound was pipetted to a black-bottomed 384-well reaction plate for later use. The negative control well was DMSO. • 2) Activation of rhCatC: RhCatC and rhCatL were added to the activation buffer to obtain a final concentration of rhCatC of 100 μg/mL and a final concentration of rhCatL of 20 μg/mL, and incubated at room temperature for 1 hour. • 3) Enzyme activity reaction: Activated rhCatC was diluted to 0.4 μg/mL with the reaction buffer. The solution was added to the black-bottom 384-well reaction plate ([…]). 10 μL of the buffer was added for the vehicle control group. The plate containing compounds in its wells was incubated at room temperature for 30 minutes.
The RLU data was read, the inhibition rate was calculated, and the IC50 value was calculated according to the fitting curve of concentration and inhibition rate.

[2] = biological target: CatC (Homo sapiens (Human), UniProt P53634); test: In vitro CatC cell activity experiment in U937 cell line; format: cell-based
Method: The U937 cell line was resuscitated and passed for about two generations, and the cell line with good growth status was selected. The cell suspension was transferred into a centrifuge tube, and centrifuged at 800 to 1000 rpm for 3 to 5 minutes. The supernatant was discarded. An appropriate volume of culture medium was added to the centrifuge tube, which was gently pipetted to resuspend the cells evenly. The cells were counted using a Vi-Cell XR cell counter. The cell suspension was adjusted to an appropriate concentration. The cell suspension was added into a 384-well plate ([…]). The compound was formulated into a 10 mM solution with DMSO. The compound was diluted with DMSO to obtain a 1 mM solution, and a semi-logarithmi dilution was carried out by HPD300 with DMSO to obtain 10 concentrations. Gly-Phe-AFC was formulated into a 35 mM solution with DMSO and divided. […] After adding the compounds and incubating for 1 hour in an incubator, substrate-AFC was added (12.5 μL was added to the plate). The plate was incubated for 30 minutes and read. […] XLFit was used to draw the drug efficacy inhibition rate curve and calculate the IC50 value. 4-parameter model [fit=(A+((B−A)/(1+((C/x)^D))))] was used.

[3] = U937 cells, CatC cell activity, read-out: Biological activity IC50

Sequence of rhCatC (P53634 25-134): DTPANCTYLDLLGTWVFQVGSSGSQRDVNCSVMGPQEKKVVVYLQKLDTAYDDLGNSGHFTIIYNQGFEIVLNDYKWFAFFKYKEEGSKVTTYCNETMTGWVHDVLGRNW
Sequence of rhCatC (P53634 231-394): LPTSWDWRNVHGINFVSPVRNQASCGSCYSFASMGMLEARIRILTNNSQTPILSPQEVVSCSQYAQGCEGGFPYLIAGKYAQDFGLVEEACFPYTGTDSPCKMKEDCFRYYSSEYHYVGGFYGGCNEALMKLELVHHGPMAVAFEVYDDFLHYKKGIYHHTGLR
Sequence of rhCatC (P53634 395-463): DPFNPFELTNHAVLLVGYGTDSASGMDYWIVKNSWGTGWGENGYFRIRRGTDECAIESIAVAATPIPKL

| Compound | IC50 [1] [nM] | IC50 [2, 3] [nM] | IC50 [2] [nM] |
| --- | --- | --- | --- |
| N#CC(Cc1ccc2c(c1)CCc1ccccc1-2)NC(=O)C1(N)CCOCC1 (stereo not shown) [Compound 7, 4-Amino-N-(1-cyano-2-(9,10-dihydrophenanthren-2-yl)ethyl)tetrahydro-2H-pyran-4-carboxamide] | 6.8 | 10.2 | – |
| N#C[C@H](Cc1ccc2c(c1)CCc1ccccc1-2)NC(=O)[C@@H]1CNCCCO1 [Compound 8, (S)—N—((S)-1-Cyano-2-(9,10-dihydrophenanthren-2-yl)ethyl)-1,4-oxazepane-2-carboxamide] | 60 | 220 | – |
| N#CC(Cc1cc2c(cc1F)-c1ccc(F)cc1CO2)NC(=O)[C@@H]1CNCCCO1 (stereo partly drawn) [Compound 12, (2S)—N-(1-Cyano-2-(2,8-difluoro-6H-benzo[c]chromen-3-yl)ethyl)-1,4-oxazepane-2-carboxamide] | 16 | – | 23 |
| N#Cc1ccc2c(c1)COc1cc(CC(C#N)NC(=O)[C@@H]3CNCCCO3)ccc1-2 (stereo partly drawn) [Compound 13, (2S)—N-(1-Cyano-2-(8-cyano-6H-benzo[c]chromen-3-yl)ethyl)-1,4-oxazepane-2-carboxamide] | 37 | – | 87.6 |
| N#C[C@H](Cc1ccc2c(c1)OCc1cc(F)c(F)cc1-2)NC(=O)[C@@H]1CNCCCO1 [Compound 16, (S)—N—((S)-1-Cyano-2-(8,9-difluoro-6H-benzo[c]chromen-3-yl)ethyl)-1,4-oxazepane-2-carboxamide] | 91 | – | 186 |
| N#C[C@H](Cc1ccc2c(c1)OCc1cc(F)c(F)cc1-2)NC(=O)C1(N)CCOCC1 [Compound 17, (S)-4-Amino-N-(1-cyano-2-(8,9-difluoro-6H-benzo[c]chromen-3-yl)ethyl)tetrahydro-2H-pyran-4-carboxamide] | 5.7 | – | 6.2 |
| N#Cc1cc2c(cn1)-c1cc(F)c(CC(C#N)NC(=O)[C@@H]3CNCCCO3)cc1OC2 (stereo partly drawn) [Compound 18, (2S)—N-(1-Cyano-2-(3-cyano-9-fluoro-5H-chromeno[4,3-c]pyridin-8-yl)ethyl)-1,4-oxazepane-2-carboxamide] | 49 | – | 29.5 |
| N#C[C@H](Cc1cc2c(cc1F)-c1ccc(F)cc1CO2)NC(=O)[C@@H]1CNCCCO1 [Compound 20, (S)—N—((S)-1-Cyano-2-(2,8-difluoro-6H-benzo[c]chromen-3-yl)ethyl)-1,4-oxazepane-2-carboxamide] | 11 | – | 7.8 |
| N#Cc1ccc2c(c1)COc1cc(C[C@@H](C#N)NC(=O)[C@@H]3CNCCCO3)c(Cl)cc1-2 [Compound 21, (S)—N—((S)-2-(2-Chloro-8-cyano-6H-benzo[c]chromen-3-yl)-1-cyanoethyl)-1,4-oxazepane-2-carboxamide] | – | – | 24.6 |
| N#CC(Cc1ccc2c(c1)OCc1cc(F)ccc1-2)NC(=O)C1(N)CCOCC1 (stereo not shown) [Compound 22, 4-Amino-N-(1-cyano-2-(8-fluoro-6H-benzo[c]chromen-3-yl)ethyl)tetrahydro-2H-pyran-4-carboxamide formate] | 3.2 | – | 5.5 |
| N#CC(Cc1cc2c(cc1F)-c1ccc(F)cc1CO2)NC(=O)C1(N)CCOCC1 (stereo not shown) [Compound 24, 4-Amino-N-(1-cyano-2-(2,8-difluoro-6H-benzo[c]chromen-3-yl)ethyl)tetrahydro-2H-pyran-4-carboxamide] | 2.7 | – | 4.3 |
| N#Cc1ccc2c(c1)COc1cc(CC(C#N)NC(=O)C3(N)CCOCC3)ccc1-2 (stereo not shown) [Compound 25, 4-Amino-N-(1-cyano-2-(8-cyano-6H-benzo[c]chromen-3-yl)ethyl)tetrahydro-2H-pyran-4-carboxamide] | 3.1 | – | 5.52 |
| N#Cc1ccc2c(c1)COc1cc(C[C@@H](C#N)NC(=O)[C@@H]3C[C@@H]4CCC[C@@H]4N3)c(F)cc1-2 [Compound 26, (2S,3aS,6aS)—N—((S)-1-Cyano-2-(8-cyano-2-fluoro-6H-benzo[c]chromen-3-yl)ethyl)octahydrocyclopenta[b]pyrrole-2-carboxamide] | 8.9 | 6.7 | – |
| N#CC(Cc1ccc2c(c1)OCc1ccc(C3COC3)cc1-2)NC(=O)[C@@H]1CNCCCO1 (stereo partly drawn) [Compound 28, (2S)—N-(1-Cyano-2-(9-(oxetan-3-yl)-6H-benzo[c]chromen-3-yl)ethyl)-1,4-oxazepane-2-carboxamide] | – | – | 50.1 |
| CS(=O)(=O)c1ccc2c(c1)COc1cc(CC(C#N)NC(=O)[C@@H]3CNCCCO3)c(F)cc1-2 (stereo partly drawn) [Compound 29, (2S)—N-(1-Cyano-2-(2-fluoro-8-(methylsulfonyl)-6H-benzo[c]chromen-3-yl)ethyl)-1,4-oxazepane-2-carboxamide] | 17.1 | – | 36.8 |
| CS(=O)(=O)c1ccc2c(c1)COc1cc(C[C@@H](C#N)NC(=O)[C@@H]3CNCCCO3)c(F)cc1-2 [Compound 30, (S)—N—((S)-1-Cyano-2-(2-fluoro-8-(methylsulfonyl)-6H-benzo[c]chromen-3-yl)ethyl)-1,4-oxazepane-2-carboxamide] | 10 | – | 9.6 |
| N#Cc1ccc2c(c1)-c1cc(F)c(CC(C#N)NC(=O)[C@@H]3CNCCCO3)cc1OC2 (stereo partly drawn) [Compound 31, (2S)—N-(1-Cyano-2-(9-cyano-2-fluoro-6H-benzo[c]chromen-3-yl)ethyl)-1,4-oxazepane-2-carboxamide] | – | – | 38.4 |
| N#CC(Cc1cc2c(cc1F)-c1ccc(S(=O)(=O)N3CCC3)cc1CO2)NC(=O)[C@@H]1CNCCCO1 (stereo partly drawn) [Compound 35, (2S)—N-(2-(8-(Azetidin-1-ylsulfonyl)-2-fluoro-6H-benzo[c]chromen-3-yl)-1-cyanoethyl)-1,4-oxazepane-2-carboxamide] | 15 | 37.9 | – |
| N#CC(Cc1ccc2c(c1)OCCc1cc(F)ccc1-2)NC(=O)C1(N)CCOCC1 (stereo not shown) [Compound 36, 4-Amino-N-(1-cyano-2-(9-fluoro-6,7-dihydrodibenzo[b,d]oxepin-3-yl)ethyl)tetrahydro-2H-pyran-4-carboxamide] | 7.1 | 23.7 | – |
| CN1CCc2cc(C[C@@H](C#N)NC(=O)C3(N)CCOCC3)ccc2C1 [Compound 51, (S)-4-Amino-N-(1-cyano-2-(2-methyl-1,2,3,4-tetrahydroisoquinolin-6-yl)ethyl)tetrahydro-2H-pyran-4-carboxamide] | 39 | – | – |
| N#C[C@H](Cc1ccc2c(c1)COCC2)NC(=O)C1(N)CCOCC1 [Compound 52, (S)-4-Amino-N-(1-cyano-2-(isochroman-7-yl)ethyl)tetrahydro-2H-pyran-4-carboxamide trifluoroacetate] | 138 | – | – |
| N#C[C@H](Cc1ccc2c(c1)OCCN(c1ccc(F)cc1)C2)NC(=O)C1(N)CCOCC1 [Compound 53, (S)-4-Amino-N-(1-cyano-2-(4-(4-fluorophenyl)-2,3,4,5-tetrahydrobenzo[f][1,4]oxazepin-8-yl)ethyl)tetrahydro-2H-pyran-4-carboxamide] | 196 | – | – |
| N#C[C@H](Cc1ccc2c(c1)CN(c1ccc(F)cc1)C2)NC(=O)C1(N)CCOCC1 [Compound 54, (S)-4-Amino-N-(1-cyano-2-(2-(4-fluorophenyl)isoindolin-5-yl)ethyl)tetrahydro-2H-pyran-4-carboxamide] | 28 | – | – |
| N#C[C@H](Cc1ccc2c(c1)CN(C(=O)c1ccc(F)cc1)C2)NC(=O)C1(N)CCOCC1 [Compound 55, (S)-4-Amino-N-(1-cyano-2-(2-(4-fluorobenzoyl)isoindolin-5-yl)ethyl)tetrahydro-2H-pyran-4-carboxamide] | 174 | – | – |
| N#C[C@H](Cc1ccc2c(c1)CCN(C(=O)c1ccc(F)cc1)C2)NC(=O)C1(N)CCOCC1 [Compound 56, (S)-4-Amino-N-(1-cyano-2-(2-(4-fluorobenzoyl)-1,2,3,4-tetrahydroisoquinolin-6-yl)ethyl)tetrahydro-2H-pyran-4-carboxamide] | 37 | – | – |
| N#C[C@H](Cc1ccc2c(c1)CCN(c1ccc(F)cc1)C2)NC(=O)C1(N)CCOCC1 [Compound 57, (S)-4-Amino-N-(1-cyano-2-(2-(4-fluorophenyl)-1,2,3,4-tetrahydroisoquinolin-6-yl)ethyl)tetrahydro-2H-pyran-4-carboxamide] | 48 | – | – |
| N#C[C@H](Cc1ccc2c(c1)CC(=O)N(c1ccc(F)cc1)C2)NC(=O)C1(N)CCCCC1 [Compound 58, (S)-1-Amino-N-(1-cyano-2-(2-(4-fluorophenyl)-3-oxo-1,2,3,4-tetrahydroisoquinolin-6-yl)ethyl)cyclohexane-1-carboxamide] | – | 99.3 | – |
